Like-named read-outs stand apart in the source and are kept apart here.
Tested on: p-sites in DNA-damaged AsPC-1 cells
Test: decryptM dose-resolved phosphoproteomics of ATRi in GEM-pre-treated cells
Assay type: cell-based, human
Description: Cell culture medium was replaced 24 h after seeding. […] For time point 0, AsPC-1 cells were treated with a vehicle and lysed immediately. The final DMSO concentration in all experiments was 0.2%.
Briefly, cells were washed twice with PBS and lysed in SDS lysis buffer (2% SDS in 40 mM Tris-HCl, pH 7.6), followed by sonication for 10 min (30 s on/30 s off) using a Bioruptor (Diagenode). For DNA hydrolysis, samples were boiled at 95 °C for 10 min and incubated with 2% trifluoroacetic acid (TFA) for 1 min, before the reaction was quenched using 4% N-methylmorpholine. Lysate was cleared by centrifugation at 11,000 × g for 5 min and protein concentration was determined using the Pierce BCA Protein Assay Kit (Thermo Scientific).
Using 70% ethanol, samples were then precipitated on beads, followed by washing thrice with 80% ethanol and once with 100% acetonitrile. Subsequently, proteins were reduced and alkylated using 10 mM TCEP, 50 mM chloroacetamide, and 2 mM CaCl2 in 100 mM EPPS/NaOH, pH 8.5 for 1 h at 37 °C, followed by tryptic digestion at 37 °C for 16 h. Peptides were acidified with 1% TFA and desalted on Chromabond HLB plates (30 µm particle size, 10 mg capacity, Machery-Nagel), using 0.1% TFA for equilibration and sample loading, and 0.1% TFA in 70% acetonitrile for peptide elution. Recovered peptides were freeze-dried by vacuum-centrifugation and stored at −20 °C.
Depending on the experiment, samples were either labeled with TMT-11plex (decryptM), TMT-10plex (non-decryptM, quadruplicates), or TMTpro reagent (time-series; all Thermo Scientific). Therefore, dried peptides were reconstituted in 15 µl 100 mM EPPS, pH 8.5 and each treatment condition was labeled with one channel of the respective TMT reagent (5 µl of 25 µg/µl reagent, Appendix Tables S4–S6). The reaction was incubated for 1 h at 23 °C and subsequently quenched with 0.4% hydroxylamine. Then, samples were pooled, acidified with 1% formic acid, and freeze-dried by vacuum-centrifugation. Labeled peptide pools were desalted on C18 Sep-Pak cartridges (37–55 µm particle size, 50 mg capacity, Waters), using 0.1% formic acid as equilibration solvent, and 0.1% formic acid in 60% acetonitrile was used as elution solvent. Eluted peptides were freeze-dried and stored at −20 °C until further use.
Basic reversed-phase (bRP) fractionation of peptides was performed on a Vanquish HPLC (Thermo Scientific). In short, dried peptides were reconstituted in 200 µl 25 mM ammonium bicarbonate, pH 8.0 and directly injected onto a Waters BEH130 XBridge C18 column (3.5 µm, 4.6 × 250 mm). […] Using an automated fraction collector, 96 fractions were collected between min 7 and 55 after injection. Fractions were acidified with 1% formic acid and pooled to 48 fractions, before they were freeze-dried and stored at −20 °C.
Immobilized metal ion affinity chromatography (IMAC) enrichment of phosphorylated peptides was performed on the Bravo automated liquid handling platform using AssayMAP Fe(III)-NTA cartridges (Agilent). In brief, the 48 dried peptide fractions were reconstituted in 0.1% TFA in 80% acetonitrile and further pooled to 12 fractions (200 µl final volume per well). The phosphopeptide enrichment protocol embedded in the Agilent AssayMAP Bravo Protein Sample Prep Workbench v2.0 software was run. Thereby, the cartridges were first primed with 150 μl 0.1% TFA in acetonitrile at 300 μl/min, and equilibrated with 150 μl 0.1% TFA in 80% acetonitrile at 10 μl/min. Then, pooled fractions were loaded at 5 µl/min and further washed three times with 150 μl 0.1% TFA in 80% acetonitrile at 50 μl/min. Enriched peptides were eluted with 60 μl 1% ammonium hydroxide at 5 μl/min.

## C[C@@H]1COCCN1c1cc(-c2ccnn2C)c2ccnc(-c3ccn[nH]3)c2n1 [Elimusertib]
  Log2 PTM response (GEM+ATRi vs. GEM): -0.6
BRCA1-pS1239
  Log2 PTM response (GEM+ATRi vs. GEM): -1.6
BRD8-pS621
  Log2 PTM response (GEM+ATRi vs. GEM): -1.4
CDKN2AIP-pS198
  Log2 PTM response (GEM+ATRi vs. GEM): -1.1
CHEK1-pS317
  Log2 PTM response (GEM+ATRi vs. GEM): -1.9
CHEK1-pS468
  Log2 PTM response (GEM+ATRi vs. GEM): -3
DHX9-pS321
  Log2 PTM response (GEM+ATRi vs. GEM): -1.6
EXO1-pS714
  Log2 PTM response (GEM+ATRi vs. GEM): -1
FANCD2-pS319
  Log2 PTM response (GEM+ATRi vs. GEM): -1.9
HDGF-pS103
  Log2 PTM response (GEM+ATRi vs. GEM): -1.1
HMGA1-pS9
  Log2 PTM response (GEM+ATRi vs. GEM): -1.4
HMGA1-pS36;S44
  Log2 PTM response (GEM+ATRi vs. GEM): -1
HMGA1-pS44
  Log2 PTM response (GEM+ATRi vs. GEM): -1.5
HSPA4-pS552
  Log2 PTM response (GEM+ATRi vs. GEM): -0.7
HTATSF1-pS481
  Log2 PTM response (GEM+ATRi vs. GEM): -0.8
Homo sapiens, ASPC1, read-out: EC50, RALY S176
  EC50: 12.8 nM
LRRC42-pS385
  Log2 PTM response (GEM+ATRi vs. GEM): -2.3
NBN-pS397
  Log2 PTM response (GEM+ATRi vs. GEM): -0.9
NBN-pS615
  Log2 PTM response (GEM+ATRi vs. GEM): -0.8
PELP1-pS1033
  Log2 PTM response (GEM+ATRi vs. GEM): -1
PNISR-pS706
  Log2 PTM response (GEM+ATRi vs. GEM): -1.9
PPP6R3-pS825
  Log2 PTM response (GEM+ATRi vs. GEM): -0.5
PSMD4-pS266
  Log2 PTM response (GEM+ATRi vs. GEM): -0.9
RAD18-pS368
  Log2 PTM response (GEM+ATRi vs. GEM): -2.1
RIF1-pS1873
  Log2 PTM response (GEM+ATRi vs. GEM): -0.6
SNRPA-pS115
  Log2 PTM response (GEM+ATRi vs. GEM): -1.1
TCEA1-pS100;S97
  Log2 PTM response (GEM+ATRi vs. GEM): -2
TCEB3-pS251
  Log2 PTM response (GEM+ATRi vs. GEM): -0.7
THAP4-pS186
  Log2 PTM response (GEM+ATRi vs. GEM): -1.1
TOPBP1-pS1504
  Log2 PTM response (GEM+ATRi vs. GEM): -1.2
TSEN34-pS136
  Log2 PTM response (GEM+ATRi vs. GEM): -0.8
UHRF1-pS393
  Log2 PTM response (GEM+ATRi vs. GEM): -0.7
UIMC1-pS171
  Log2 PTM response (GEM+ATRi vs. GEM): -1.7
ZC3H14-pS135
  Log2 PTM response (GEM+ATRi vs. GEM): -1.6
Classified by CurveCurator
  ATRi Regulation (Curve), RALY S176: down
Source data 4B (p-site not named), 1 µM GEM + ATRi 10 nM
  PTM response (norm. to 1 µM GEM): 0.81
Source data 4B (p-site not named), 1 µM GEM + ATRi 300 nM
  PTM response (norm. to 1 µM GEM): 0.28
Source data 4B (p-site not named), 1 µM GEM + ATRi 1000 nM
  PTM response (norm. to 1 µM GEM): 0.29
Source data 4B (p-site not named), 1 µM GEM + ATRi 3000 nM
  PTM response (norm. to 1 µM GEM): 0.30
Source data 4B (p-site not named), 1 µM GEM + ATRi 10000 nM
  PTM response (norm. to 1 µM GEM): 0.27
Source data 5B (p-site not named), 1 µM GEM + ATRi 3 nM
  PTM response (norm. to 1 µM GEM): 0.67
Source data 5B (p-site not named), 1 µM GEM + ATRi 30 nM
  PTM response (norm. to 1 µM GEM): 0.17

— paper PMC11876601 (Molecular Systems Biology, 2025)
